In patent publication EP4442684A1, “A CLASS OF PYRIMIDINE COMPOUNDS, AND PREPARATION METHOD THEREFOR AND USE THEREOF” (Shanghai Allist Pharmaceuticals Co., Ltd., priority 2021, dated 2023):

System: PC-9-EGFR-Del19-T790M-C797S cells
Assay: proliferation inhibition on PC-9-EGFR-Del19-T790M-C797S cells, sulforhodamine B method (SRB method)
Type: cell-based
Conditions: Homo sapiens, in vitro proliferation inhibition, 72 hours culture, final concentrations 2500 to 0.01nM
Protocol: The in vitro proliferation inhibition activity of the compound on PC-9-EGFR-Del19-T790M-C797Slcells where Del19/T790M/C797S triple mutation exists in exogenously stably overexpressed EGFR protein of human non-small cell lung cancer PC-9 was determined by sulforhodamine B method (SRB method).
Cell source: PC-9-EGFR-Del19-T790M-C797S cells were purchased from Nanjing Cobioer Biosciences Co., Ltd.
PC-9-EGFR-Del19-T790M-C797S cells were cultured in an RPMI1640 complete medium containing puromycin (2µg/ml) and 10% fetal bovine serum. PC-9-EGFR-Del19-T790M-C797S cells in a logarithmic growth phase were taken, seeded in a 96-well plate at a cell density of 5000 cells/135µL complete culture medium/well, placed in a thermostatic incubator containing 5% CO2 at 37°C and cultured for 24 hours to ensure complete anchorage of cells. Each compound was dissolved in dimethyl sulfoxide (DMSO) in advance to prepare a 10mM stock solution, and then the compound was successively diluted with DMSO and the complete culture medium. […]
GraphPad Prism 8.3 software was used for data analysis, and non-linear S-curve regression was used for fitting the data to obtain a dose-effect curve, from which an IC50 value was calculated, and the results are shown in Table 1.

- IC50: 0.564 µM
Structure (SMILES): C=CC(=O)Nc1cc(Nc2nccc(-c3cn(C)c4ccccc34)n2)c(OCC(F)(F)F)nc1N(C)CC[N+](C)(C)[O-] [Compound V]
